{"source": "PubChem BioAssay AID2060497", "about": "(Molecular Pharmacology Branch, DTP, NCI, 2025)", "tested_on": "317291-083-R-J1-PDC complex spheroids, viability", "assay": "Anticancer human tumor 317291-083-R-J1-PDC patient-derived soft tissue sarcoma cell line growth inhibition [GQUAD]", "settings": "for viability, T/C: stronger effect = lower value", "from_the_text": "DNA G-quadruplex Stabilizer Agents in Combinations in Complex Spheroids\nA high-throughput screen of multi-cell type tumor spheroids was designed to identify active combinations of DNA G-quadruplex stabilizer agents and targeted small molecules. Complex spheroids include a stromal component modeled by human endothelial cells (HUVEC) and fibroblasts modeled by human mesenchymal stem cells (MSCs). The concentration ranges selected for each drug and investigational agent were based upon clinically achievable concentrations if the clinical Cmax of the agent was known.\nCompounds. The drugs and investigational agents: pidnarulex (CX-5461; NSC782164), APTO-253 (NSC789042), BRACO-19 (NSC847499), peposertib (NSC802822), ceralasertib (NSC780249), elimusertib (NSC800525), camonsertib (NSC841442), AZD-1390 (NSC803789), olaparib (NSC753686), talazoparib (NSC767125), ART-558 (NSC835418), sotorasib (NSC818433), MRTX-1133 (NSC836407), SN-38 (NSC673596), topotecan (NSC609699), etoposide (NSC141540), doxorubicin (NSC123127), gemcitabine (NSC613327), 5-fluorouracil (NSC19893), paclitaxel (NSC125973), vemurafenib (NSC761431), panobinostat (NSC761190), R-306465 (JNJ-16241199; NSC773264), adavosertib (NSC754352), TP-3654 (NSC805149), carboplatin (NSC241240), KSQ-4279 (NSC840948), and staurosporine (NSC755774) were obtained from the National Cancer Institute (NCI) Developmental Therapeutics Program Chemical Repository (34). The FDA-approved anticancer drug set is available from the NCI Developmental Therapeutics Program. […] The stock solutions were prepared in dimethyl sulfoxide (DMSO, Sigma-Aldrich, St. Louis, MO, cat. D2650) at 800-fold the tested concentration and stored at -70 degrees C prior to their use. All drugs and investigational agents were tested over a range starting from a high concentration at or near the clinical Cmax and decreasing in half-log increments. If the clinical Cmax for an agent had not been determined, the highest concentration tested was 10 microM.\n2.3 Cell Culture. All cells were maintained in an incubator at 37 degrees C and 5% CO2 with 95% humidity. The PDC lines were cultured according to standard operating procedures established by the NCI PDMR. All PDCs were thawed and cultured in Matrigel-coated flasks prepared with a working solution of 1X Ham's F-12 nutrient mix, without supplementation (Invitrogen, cat. 11765054), 100 U/mL penicillin-streptomycin (Invitrogen, cat. 15140122), and 2.5% Matrigel (Corning Inc., cat. 354248) for the first three passages. The 857933-349-R-J2-PDC line was cultured in 6C/Colon 1B media, which includes advanced DMEM/F-12 (Thermo Fisher Scientific, cat. 12634028), 10 mM HEPES (Thermo Fisher Scientific, cat. 15630080), 1X GlutaMAX supplement (Thermo Fisher Scientific, cat. 35050061), 0.1 mg/mL primocin (InvivoGen, cat. ant-pm-2), 10% defined fetal bovine serum, heat inactivated (HyClone Laboratories Inc., cat. SH30070.03HI), 50% L-WRN conditioned media (ATCC, cat. CRL-3276), 1.25 mM N-Acetyl-L-cysteine (Sigma-Aldrich, cat. A9165), 10 mM nicotinamide (Sigma-Aldrich, cat. N0636), 1X B-27 supplement (Thermo Fisher Scientific, cat. 17504044), 1X N-2 supplement (Thermo Fisher Scientific, cat. 17502048), 10 microM Y-27632 dihydrochloride (Tocris Bioscience, cat. 1254), and 50 ng/mL human EGF recombinant protein (Thermo Fisher Scientific, cat. PHG0311). The 485176-168-R4-J1-PDC line was cultured in Panc media, which includes all 6C/Colon 1B media components plus 100 ng/mL human FGF-10 (Thermo Fisher Scientific, cat. 100-26), 500 nM SB-431542 (Selleckchem, cat. S1067), and gastrin (Tocris, cat. 3006).\n[…]", "note": "Several values for one entry are separate records, joined by “and”; a condition that tells them apart may be missing. Identical values can stand only once.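 Further: spheroids exposed to compounds for one week before readout.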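 Wherever viability, T/C is given: percent viability relative to DMSO vehicle wells taken as 100%.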"}
{"smiles": "C#Cc1c(F)ccc2cc(O)cc(-c3ncc4c(N5CC6CCC(C5)N6)nc(OCC56CCCN5CC(F)C6)nc4c3F)c12", "note": "(configuration not stated)", "values": [{"measurement": "viability, T/C", "setting": "compound 0.0316 µM", "value": "102% and 110% and 104%"}, {"measurement": "viability, T/C", "setting": "compound 0.1 µM", "value": "121% and 94.4% and 94.7%"}, {"measurement": "viability, T/C", "setting": "compound 0.316 µM", "value": "106% and 97.1% and 94.4%"}, {"measurement": "viability, T/C", "setting": "compound 1 µM", "value": "117% and 102% and 95.2%"}, {"measurement": "viability, T/C", "setting": "compound 3.16 µM", "value": "124% and 92.5% and 79.8%"}, {"measurement": "viability, T/C", "setting": "compound 10 µM", "value": "87.1% and 32.5% and 43.6%"}, {"measurement": "IC50", "setting": "curve of compound", "value": "> 10000 nM and 7160 nM and 8220 nM"}]}
{"smiles": "C=CCn1c(=O)c2cnc(Nc3ccc(N4CCN(C)CC4)cc3)nc2n1-c1cccc(C(C)(C)O)n1", "values": [{"measurement": "viability, T/C", "setting": "compound 0.0316 µM", "value": "76.4% and 96.2% and 111%"}, {"measurement": "viability, T/C", "setting": "compound 0.1 µM", "value": "59.4% and 51.4% and 83.7%"}, {"measurement": "viability, T/C", "setting": "compound 0.316 µM", "value": "26.6% (2×) and 41.3%"}, {"measurement": "viability, T/C", "setting": "compound 1 µM", "value": "17.6% and 13.5% and 23.8%"}, {"measurement": "viability, T/C", "setting": "compound 3.16 µM", "value": "8.54% and 7.89% and 17.9%"}, {"measurement": "viability, T/C", "setting": "compound 10 µM", "value": "9.53% and 9.94% and 16.1%"}, {"measurement": "IC50", "setting": "curve of compound", "value": "138 nM and 108 nM and 253 nM"}]}
{"smiles": "CC(=O)O[C@H]1C(=O)[C@@]2(C)[C@H]([C@H](OC(=O)c3ccccc3)[C@]3(O)C[C@H](OC(=O)[C@H](O)[C@@H](NC(=O)c4ccccc4)c4ccccc4)C(C)=C1C3(C)C)[C@]1(OC(C)=O)CO[C@@H]1C[C@@H]2O", "values": [{"measurement": "viability, T/C", "setting": "compound 0.0316 µM", "value": "57.3% and 36.6% and 33.9%"}, {"measurement": "viability, T/C", "setting": "compound 0.1 µM", "value": "20.6% and 16.7% and 10.5%"}, {"measurement": "viability, T/C", "setting": "compound 0.316 µM", "value": "13.1% and 15.6% and 6.57%"}, {"measurement": "viability, T/C", "setting": "compound 1 µM", "value": "12.8% and 15.3% and 9.02%"}, {"measurement": "viability, T/C", "setting": "compound 3.16 µM", "value": "12.2% and 9.53% and 10.6%"}, {"measurement": "viability, T/C", "setting": "compound 10 µM", "value": "12.3% and 12.5% and 12.1%"}, {"measurement": "IC50", "setting": "curve of compound", "value": "39.7 nM and < 31.6 nM"}]}
{"smiles": "CC(C)(O)C1CCC(Nc2ccc3ncc(-c4cccc(C(F)(F)F)c4)n3n2)CC1", "note": "(configuration not stated)", "values": [{"measurement": "viability, T/C", "setting": "compound 0.0316 µM", "value": "116% and 108% and 110%"}, {"measurement": "viability, T/C", "setting": "compound 0.1 µM", "value": "95.4% and 96.7% and 97.2%"}, {"measurement": "viability, T/C", "setting": "compound 0.316 µM", "value": "83% and 89.8% and 76.7%"}, {"measurement": "viability, T/C", "setting": "compound 1 µM", "value": "30% and 33.8% and 28.6%"}, {"measurement": "viability, T/C", "setting": "compound 3.16 µM", "value": "0.43% and 0.52% and 1.03%"}, {"measurement": "viability, T/C", "setting": "compound 10 µM", "value": "0.85% and 0.69% and 1%"}, {"measurement": "IC50", "setting": "curve of compound", "value": "633 nM and 711 nM and 588 nM"}]}
{"smiles": "CCCS(=O)(=O)Nc1ccc(F)c(C(=O)c2c[nH]c3ncc(-c4ccc(Cl)cc4)cc23)c1F", "values": [{"measurement": "viability, T/C", "setting": "compound 0.0316 µM", "value": "104% and 114% and 118%"}, {"measurement": "viability, T/C", "setting": "compound 0.1 µM", "value": "97.3% and 110% and 95%"}, {"measurement": "viability, T/C", "setting": "compound 0.316 µM", "value": "102% and 113% and 121%"}, {"measurement": "viability, T/C", "setting": "compound 1 µM", "value": "86.6% and 83.1% and 87%"}, {"measurement": "viability, T/C", "setting": "compound 3.16 µM", "value": "46.4% and 66% and 62.4%"}, {"measurement": "viability, T/C", "setting": "compound 10 µM", "value": "12.2% and 13.6% and 14.5%"}, {"measurement": "IC50", "setting": "curve of compound", "value": "2840 nM and 4300 nM and 4140 nM"}]}
{"smiles": "CN(C)c1ccc(Nc2c3ccc(NC(=O)CCN4CCCC4)cc3nc3cc(NC(=O)CCN4CCCC4)ccc23)cc1", "values": [{"measurement": "viability, T/C", "setting": "compound 0.1 µM", "value": "99.5% [middle of 12 runs]"}, {"measurement": "viability, T/C", "setting": "compound 10 µM", "value": "11.4% [middle of 11 runs]"}]}
{"smiles": "COc1ncnc(C2CC2)c1-c1ncc2cnn(Cc3ccc(-c4nc(C(F)(F)F)cn4C(C)C)cc3)c2n1", "values": [{"measurement": "viability, T/C", "setting": "compound 0.0316 µM", "value": "103% and 107% and 108%"}, {"measurement": "viability, T/C", "setting": "compound 0.1 µM", "value": "92.9% and 85.3% and 81.5%"}, {"measurement": "viability, T/C", "setting": "compound 0.316 µM", "value": "92.4% and 71.4% and 68.1%"}, {"measurement": "viability, T/C", "setting": "compound 1 µM", "value": "74.2% and 64.1% and 68.2%"}, {"measurement": "viability, T/C", "setting": "compound 3.16 µM", "value": "100% and 63.6% and 68.3%"}, {"measurement": "viability, T/C", "setting": "compound 10 µM", "value": "76.2% and 72.3% and 64.5%"}, {"measurement": "IC50", "setting": "curve of compound", "value": "> 10000", "unit": "nM"}]}
{"smiles": "Cc1[nH]c2ccc(F)cc2c1-c1nc2c3cccnc3c3ncccc3c2[nH]1", "values": [{"measurement": "IC50", "setting": "compound alone, run of 02/20/2024", "value": "> 10000", "unit": "nM"}]}
{"smiles": "O=C(NO)c1cnc(N2CCN(S(=O)(=O)c3ccc4ccccc4c3)CC2)nc1", "values": [{"measurement": "viability, T/C", "setting": "compound 0.0316 µM", "value": "109% and 96.9% and 93.2%"}, {"measurement": "viability, T/C", "setting": "compound 0.1 µM", "value": "62.2% and 72.5% and 96.7%"}, {"measurement": "viability, T/C", "setting": "compound 0.316 µM", "value": "8.74% and 8.1% and 24.6%"}, {"measurement": "viability, T/C", "setting": "compound 1 µM", "value": "0.24% and 0.48% and 0.9%"}, {"measurement": "viability, T/C", "setting": "compound 3.16 µM", "value": "0.11% and 0.05% and 0.04%"}, {"measurement": "viability, T/C", "setting": "compound 10 µM", "value": "0.29% and 1.01% and 0.08%"}, {"measurement": "IC50", "setting": "curve of compound", "value": "130 nM and 149 nM and 209 nM"}]}
